Results as given in ChEMBL document CHEMBL3046142, “Cross resistance, genetic analysis and stability of resistance to buprofezin in cotton whitefly, Bemisia tabaci (Homoptera: Aleyrodidae)” (2012).

Experiments:
Format in all cases: functional
Bemisia tabaci [1] = assay: Insecticidal activity against Bemisia tabaci Bupro-SEL (sweet potato whitefly) from 20 generation buprofezin resistance assessed as mortality measured after 18 to 20 days
Bemisia tabaci [2] = assay: Insecticidal activity against Bemisia tabaci Bupro-SEL (sweet potato whitefly) from 10 generation buprofezin resistance assessed as mortality measured after 18 to 20 days
Bemisia tabaci [3] = assay: Insecticidal activity against Bemisia tabaci UNSEL G11 (sweet potato whitefly) from 11 generation buprofezin resistance assessed as mortality measured after 18 to 20 days
Bemisia tabaci [4] = assay: Insecticidal activity against Bemisia tabaci (sweet potato whitefly) from one generation buprofezin resistance G1 assessed as mortality measured after 18 to 20 days
Bemisia tabaci [5] = assay: Insecticidal activity against Bemisia tabaci (sweet potato whitefly) susceptible Lab-PK assessed as mortality measured after 18 to 20 days
Bemisia tabaci [6] = assay: Insecticidal activity against Bemisia tabaci F1 (sweet potato whitefly) pooled/Bupro-SEL hybrid assessed as mortality measured after 18 to 20 days
Bemisia tabaci [7] = assay: Insecticidal activity against Bemisia tabaci F1 (sweet potato whitefly) pooled assessed as mortality measured after 18 to 20 days
Bemisia tabaci [8] = assay: Insecticidal activity against Bemisia tabaci Bupro-SEL (sweet potato whitefly) male/Lab-PK female hybrid assessed as mortality measured after 18 to 20 days
Bemisia tabaci [9] = assay: Insecticidal activity against Bemisia tabaci Bupro-SEL (sweet potato whitefly) female/Lab-PK male hybrid assessed as mortality measured after 18 to 20 days

SMILES | LC50 (Bemisia tabaci [1]) [ugAi/ml] | LC50 (Bemisia tabaci [2]) [ugAi/ml] | LC50 (Bemisia tabaci [3]) [ugAi/ml] | LC50 (Bemisia tabaci [4]) [ugAi/ml] | LC50 (Bemisia tabaci [5]) [ugAi/ml] | LC50 (Bemisia tabaci [6]) [ugAi/ml] | LC50 (Bemisia tabaci [7]) [ugAi/ml] | LC50 (Bemisia tabaci [8]) [ugAi/ml] | LC50 (Bemisia tabaci [9]) [ugAi/ml]
C/C(=N\C#N)N(C)Cc1ccc(Cl)nc1 [ACETAMIPRID] | 0.4 | 4.04 | 0.36 | 2.21 | 0.39 | – | – | – | –
CC(C)N1C(=O)N(c2ccccc2)CS/C1=N\C(C)(C)C [BUPROFEZIN] | 115.2 | 1400 | 0.25 | 1.41 | 0.2 | 62.6 | 4.86 | 4.41 | 5.11
O=[N+]([O-])/N=C1\NCCN1Cc1ccc(Cl)nc1 [IMIDACLOPRID] | 0.17 | 2.18 | 0.2 | 1.29 | 0.09 | – | – | – | –
CC(COc1ccc(Oc2ccccc2)cc1)Oc1ccccn1 (centres undefined) [PYRIPROXYFEN] | 1.63 | 51.54 | 0.52 | 1.81 | 0.6 | – | – | – | –
CCOC(=O)OC1=C(c2cc(C)ccc2C)C(=O)N[C@]12CC[C@@H](OC)CC2 [SPIROTETRAMAT] | 0.11 | 1.04 | 0.1 | 0.7 | 0.17 | – | – | – | –
